The results in this text go back to patent US20190263796A1, “LIM KINASE INHIBITORS, PHARMACEUTICAL COMPOSITION AND METHOD OF USE IN LIMK-MEDIATED DISEASES” (CELLIPSE, priority 2016, published 2019).

Common to all, as to type: cell-based
Experiment [1] relates to Phospho-Ser3-Cofilin/Total Cofilin. The experiment in a line: Western blot cofilin phosphorylation, HL-60. The note with it: HL-60 cells, 2 h. How it is done:
HL-60 cell line was originally purchased from the Leibniz-Institut Deutsche Sammlung von Mikroorganismen und Zellkulturen GmbH (DSMZ). HL-60 cells are cultured in RPMI 1640 10% (v/v) FBS supplemented with 100 U/mL^−1 penicillin, 0.1 mg·mL^−1 streptomycin (PAN Biotech P06-07100). Cells were maintained at 37° C. with 5% CO2.
(§1) In a 6 wells plate (Falcon 353046), 2·10^6 cells in 1.5 mL medium are treated for 2 h with compounds. Cells are then collected and cell lysis is performed at 4° C. using RIPA buffer supplemented with protease inhibitors cocktail (Sigma-Aldrich P8340) and phosphatase inhibitors cocktail (Sigma-Aldrich P5726). Following centrifugation 30 min 15000 g 4° C., supernatants are mixed with Laemmli buffer and denaturation is performed by heating 5 min 95° C. 10 μL of samples are subjected to electrophoresis on 15% SDS-PAGE. After electro-transfer (Mini Transblot, Bio-Rad), the PVDF membrane (Merck-Millipore Immobilon P IPVH00010) is blocked with Tris Buffered Saline, pH 7.4 (TBS) with 0.1% Tween 20 and 5% BSA for 1 h RT under agitation. The membrane was rinsed 3 times 10 min at room temperature under agitation with TBS, 0.1% Tween-20 (TBST) and then 1 h at room temperature with anti-phospho-Ser3-cofilin (Cell Signaling Technology #3313, 1/1000 dilution) antibody or anti-cofilin (Cell Signaling Technology #3312, 1/1000 dilution) diluted in TBS, 0.1% Tween 20 and 1% BSA. The membrane is then rinsed 3 times 10 min at room temperature under agitation in TBST and incubated for 1 h with anti-rabbit secondary antibody, horseradish peroxidase conjugated (Jackson Immunoresearch #711-036-152) under agitation at room temperature. After three washes 10 min at room temperature in TBST, the detection of total or phosphorylated cofilin was performed using chemiluminescence kit ECL™ Plus (GE Healthcare RPN2132). For each concentration of compound, ratio between phosphorylated cofilin and total cofilin is determined. This ratio is then expressed as percentage of control ratio (i.e., ratio from DMSO treated cells). IC50 Phospho-Ser3-Cofilin/Total Cofilin is then determined.

For experiment [2] the test system is unchanged. The experiment in a line: Western blot cofilin phosphorylation, MOLM-14. The note with it: MOLM-14 cells, 2 h. The protocol:
MOLM-14 cell line was originally purchased from the American Type Culture Collection (ATCC). MOLM-14 cells are cultured in MEM alpha 10% (v/v) FBS supplemented with 100 U/mL^−1 penicillin, 0.1 mg·mL^−1 streptomycin (PAN Biotech P06-07100). Cells were maintained at 37° C. with 5% CO2.
as §1
A general note: Immunoblotting shows a protein as a band on a membrane.

The subject of experiment [3] is P-MEK/Total MEK. In words: Western blot MEK1 phosphorylation, MOLM-13. The settings on record: for IC50: Homo sapiens, read-out: IC50 P-MEK/Total MEK. How it is done: MOLM-13 cell line was originally purchased from the Leibniz-Institut Deutsche Sammlung von Mikroorganismen und Zellkulturen GmbH (DSMZ). MOLM-13 cells are cultured in RPMI 1640 20% (v/v) FBS supplemented with 100 U/mL^−1 penicillin, 0.1 mg·mL^−1 streptomycin (PAN Biotech P06-07100). Cells were maintained at 37° C. with 5% CO2.
(§2) In a 6 wells plate (Falcon 353046), 2·10^6 cells in 1.5 mL medium are treated for 2 h with compounds. Cells are then collected and cell lysis is performed at 4° C. using RIPA buffer supplemented with protease inhibitors cocktail (Sigma-Aldrich P8340) and phosphatase inhibitors cocktail (Sigma-Aldrich P5726). Following centrifugation 30 min 15000 g 4° C., supernatants are mixed with Laemmli buffer and denaturation is performed by heating 5 min 95° C. 10 μL of samples are subjected to electrophoresis on 15% SDS-PAGE. After electro-transfer (Mini Transblot, Bio-Rad), the PVDF membrane (Merck-Millipore Immobilon P IPVH00010) is blocked with Tris Buffered Saline, pH 7.4 (TBS) with 0.1% Tween 20 and 5% BSA for 1 h at room temperature under agitation. The membrane was rinsed 3 times 10 min at room temperature under agitation with TBS, 0.1% Tween-20 (TBST) and then 1 h at room temperature with anti-phospho-Ser218/222-MEK1 (Merck-Millipore 07-461, 1/1000 dilution) antibody or anti-MEK1 (Merck-Millipore 07-641, 1/1000 dilution) diluted in TBS, 0.1% Tween 20 and 1% BSA. The membrane is then rinsed 3 times 10 min RT under agitation in TBST and incubated for 1 h with anti-rabbit secondary antibody, horseradish peroxidase conjugated (Jackson Immunoresearch #711-036-152) under agitation at room temperature. After three washes 10 min at room temperature in TBST, the detection of total or phosphorylated cofilin was performed using chemiluminescence kit ECL™ Plus (GE Healthcare RPN2132). For each concentration of compound, ratio between phosphorylated cofilin and total cofilin is determined. This ratio is then expressed as percentage of control ratio (i.e., ratio from DMSO treated cells). IC50 P-MEK/Total MEK is then determined.
(§3) Selectivity ratios are calculated by dividing the IC50 P-MEK/Total MEK value (μM) by the IC50 Phospho-Ser3-Cofilin/Total Cofilin value (μM).

For experiment [4], the system named is P-MEK/Total MEK. The experiment in a line: Western blot MEK1 phosphorylation, K-562. The note with it: for IC50: Homo sapiens, read-out: IC50 P-MEK/Total MEK; for Selectivity ratio: IC50 P-MEK/Total MEK divided by IC50 Phospho-Ser3-Cofilin/Total Cofilin. How it is done:
(§4) K-562 cell line was originally purchased from the Leibniz-Institut Deutsche Sammlung von Mikroorganismen und Zellkulturen GmbH (DSMZ). K-562 cells are cultured in RPMI 1640 10% (v/v) FBS supplemented with 100 U/mL^−1 penicillin, 0.1 mg·mL^−1 streptomycin (PAN Biotech P06-07100). Cells were maintained at 37° C. with 5% CO2.
as §2, §3

Experiment [5] concerns Phospho-Ser3-Cofilin/Total Cofilin. The experiment in a line: Western blot cofilin phosphorylation, K-562. The settings on record: Homo sapiens; K562 cells; 2 h. How it is done:
as §4, §1

Experiment [6] has as its system P-MEK/Total MEK. The experiment in a line: Western blot MEK1 phosphorylation, THP-1. The settings on record: for IC50: Homo sapiens, read-out: IC50 P-MEK/Total MEK. How it is done: Cells were maintained at 37° C. with 5% CO2.
as §2, §3

The test system of experiment [7] is Phospho-Ser3-Cofilin/Total Cofilin. The experiment in a line: Western blot cofilin phosphorylation, THP-1. The note with it: Homo sapiens; THP-1 cells; 2 h. How it is done: THP-1 cell line was originally purchased from the Leibniz-Institut Deutsche Sammlung von Mikroorganismen und Zellkulturen GmbH (DSMZ). THP-1 cells are cultured in RPMI 1640 20% (v/v) FBS supplemented with 100 U/mL^−1 penicillin, 0.1 mg·mL^−1 streptomycin (PAN Biotech P06-07100). Cells were maintained at 37° C. with 5% CO2.
In a 6 wells plate (Falcon 353046), 2·10^6 cells in 1.5 mL medium are treated for 2 h with compounds. Cells are then collected and cell lysis is performed at 4° C. using RIPA buffer supplemented with protease inhibitors cocktail (Sigma-Aldrich P8340) and phosphatase inhibitors cocktail (Sigma-Aldrich P5726). Following centrifugation 30 min 15000 g 4° C., supernatants are mixed with Laemmli buffer and denaturation is performed by heating 5 min 95° C. 10 μL of samples are subjected to electrophoresis on 15% SDS-PAGE. After electro-transfer (Mini Transblot, Bio-Rad), the PVDF membrane (Merck-Millipore Immobilon P IPVH00010) is blocked with Tris Buffered Saline, pH 7.4 (TBS) with 0.1% Tween 20 and 5% BSA for 1 h RT under agitation. […] For each concentration of compound, ratio between phosphorylated cofilin and total cofilin is determined. This ratio is then expressed as percentage of control ratio (i.e., ratio from DMSO treated cells). IC50 Phospho-Ser3-Cofilin/Total Cofilin is then determined.

With `O=S(=O)(Nc1cccc(-c2nc(CCO)sc2-c2ccnc(Nc3ccccc3)n2)c1F)c1c(F)cccc1F` [8 (Na)], the IC50 was less than 200 nM in experiment [1]; less than 200 nM in experiment [2]; greater than 1000 nM with P-MEK/Total MEK [3] (MOLM-13 cells, 2 h). Further, the Selectivity ratio with P-MEK/Total MEK [3] (MOLM-13 cells, IC50 P-MEK/Total MEK divided by IC50 Phospho-Ser3-Cofilin/Total Cofilin) was determined as 42.
With `CC(C)(C)c1nc(-c2cccc(NS(=O)(=O)c3c(F)cccc3F)c2F)c(-c2ccnc(Nc3ccccc3)n2)s1` [Compound 1, N-(3-(2-(tert-butyl)-5-(2-(phenylamino)pyrimidin-4-yl)thiazol-4-yl)-2-fluorophenyl)-2,6-difluorobenzenesulfonamide], the IC50 is less than 200 nM in experiment [2] (Homo sapiens); greater than 1000 nM in the experiment with P-MEK/Total MEK [4] (K562, 2 h); 200 to 1000 nM in experiment [5]. Besides, the Selectivity ratio with P-MEK/Total MEK [4] (K562 cells) is 8.
As to `O=S(=O)(Nc1cccc(-c2nc(CCO)sc2-c2ccnc(Nc3ccccc3)n2)c1F)c1c(F)cccc1F` [Compound 8, 2,6-difluoro-N-(2-fluoro-3-(2-(2-hydroxyethyl)-5-(2-(phenylamino)pyrimidin-4-yl)thiazol-4-yl)phenyl)benzenesulfonamide], the IC50 is 200 to 1000 nM in the experiment with P-MEK/Total MEK [6] (THP-1 cells, 2 h); less than 200 nM in experiment [1] (Homo sapiens); less than 200 nM in experiment [2] (Homo sapiens); less than 200 nM in experiment [7]; 200 to 1000 nM in the experiment on P-MEK/Total MEK [4] (K562 cells, 2 h); less than 200 nM in experiment [5]. For the same compound, the Selectivity ratio with P-MEK/Total MEK [6] (THP-1 cells, IC50 P-MEK/Total MEK divided by IC50 Phospho-Ser3-Cofilin/Total Cofilin) worked out at 80; in the experiment on P-MEK/Total MEK [4] (K562 cells) it was 20.
For `CNC(=O)Cc1nc(-c2cccc(NS(=O)(=O)c3c(F)cccc3F)c2F)c(-c2ccnc(Nc3ccccc3)n2)s1` [Compound 9, 2-(4-(3-(2,6-difluorophenylsulfonamido)-2-fluorophenyl)-5-(2-(phenylamino)pyrimidin-4-yl)thiazol-2-yl)-N-methylacetamide], the IC50 with P-MEK/Total MEK [6] (THP-1, 2 h) is 200 to 1000 nM; in experiment [2] (Homo sapiens), less than 200 nM; in the experiment on P-MEK/Total MEK [3] (MOLM-13, 2 h), greater than 1000 nM; in experiment [7] it was less than 200 nM; in the experiment on P-MEK/Total MEK [4] (K562, 2 h) it was greater than 1000 nM; in experiment [5], less than 200 nM.
